Data published in ChEMBL document CHEMBL5257035, “Nucleoside Derived Antibiotics to Fight Microbial Drug Resistance: New Utilities for an Established Class of Drugs?” (J Med Chem, 2016).
Converted amounts (≈) assume the structure as drawn.

What was measured:
Candida albicans [1] = assay: Antifungal activity against Candida albicans assessed as fungal growth inhibition measured after 24 hrs by micro broth dilution method; type: functional
Aspergillus fumigatus [2] = assay: Antifungal activity against Aspergillus fumigatus assessed as fungal growth inhibition; type: functional
Cryptococcus neoformans [3] = assay: Antifungal activity against Cryptococcus neoformans assessed as fungal growth inhibition measured after 24 hrs by micro broth dilution method; type: functional
[4] = Inhibition of Candida albicans chitin synthase
Candida albicans [5] = assay: Inhibition of Candida albicans chitin synthase at 1 uM relative to control
Pseudomonas aeruginosa [6] = assay: Antimicrobial activity against Pseudomonas aeruginosa M35 assessed as reduction in microbial growth; type: functional
Candida albicans [7] = assay: Antifungal activity against Candida albicans assessed as inhibition of fungal growth; type: functional
Aspergillus fumigatus [8] = assay: Antifungal activity against Aspergillus fumigatus assessed as inhibition of fungal growth; type: functional
Pseudomonas aeruginosa [9] = assay: Antibacterial activity against Pseudomonas aeruginosa ATCC 27853 assessed as bacterial growth inhibition at 32 ug/ml measured after 16 hrs by broth microdilution method; type: functional; conditions: dose 32 µg/ml
Candida albicans [10] = assay: Antifungal activity against Candida albicans SC5314 assessed as reduction in microbial growth inhibition incubated for 48 hrs by broth microdilution assay; type: functional
Cryptococcus neoformans [11] = assay: Antifungal activity against Cryptococcus neoformans assessed as reduction in fungal growth; type: functional
Candida albicans [12] = assay: Antifungal activity against Candida albicans B-311 assessed as reduction fungal growth incubated for 16 hrs by microbroth dilution method; type: functional
[13] = Inhibition of Candida albicans SC5314 chitin synthase using UDP-GlcNAc as substrate incubated for 1 hr
Coccidioides immitis = assay: Antifungal activity against Coccidioides immitis assessed as reduction in fungal growth; type: functional
[14] = test system: Cutaneotrichosporon cutaneum; assay: Antifungal activity against Trichosporon cutaneum 3071 assessed as reduction in microbial growth inhibition for 48 hrs by broth microdilution assay; type: functional
Aspergillus niger = assay: Antifungal activity against Aspergillus niger MTCC 282 assessed as reduction in microbial growth measured after 48 hrs by broth dilution method; type: functional
Staphylococcus aureus [15] = assay: Antibacterial activity against methicillin-resistant Staphylococcus aureus assessed as reduction in bacterial growth by broth dilution method; type: functional
[16] = target: T1, Phospho-N-acetylmuramoyl-pentapeptide-transferase (Escherichia coli, UniProt E2QF15); assay: Inhibition of MraY in Escherichia coli
T1 sequence (E2QF15 whole entry): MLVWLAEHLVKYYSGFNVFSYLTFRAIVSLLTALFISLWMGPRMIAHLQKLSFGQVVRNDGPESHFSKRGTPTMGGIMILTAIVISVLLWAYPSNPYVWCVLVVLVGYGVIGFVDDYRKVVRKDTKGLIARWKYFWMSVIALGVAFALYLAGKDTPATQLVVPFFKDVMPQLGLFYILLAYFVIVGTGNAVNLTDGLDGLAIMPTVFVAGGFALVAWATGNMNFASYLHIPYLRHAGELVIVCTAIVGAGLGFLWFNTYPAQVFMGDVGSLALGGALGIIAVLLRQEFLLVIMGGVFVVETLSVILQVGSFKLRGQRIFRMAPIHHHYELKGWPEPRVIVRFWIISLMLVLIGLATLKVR

[17] = Inhibition of Bacterial MraY; parameters: species or system Bacteria
Staphylococcus aureus [18] = assay: Antimicrobial activity against methicillin-resistant Staphylococcus aureus assessed as reduction in microbial growth by broth microdilution method; type: functional
Enterococcus faecalis = assay: Antimicrobial activity against Enterococcus faecalis 10785 assessed as reduction in microbial growth by broth microdilution method; type: functional
[19] = Cytotoxicity against human HepG2 cells assessed as reduction in cell viability incubated for 72 hrs by MTT assay; type: toxicity, cell-based
[20] = test system: Mycobacterium intracellulare; assay: Antimycobacterial activity against Mycobacterium intracellulare assessed as microbial growth reduction; type: functional
Mycobacterium avium = assay: Antimycobacterial activity against Mycobacterium avium assessed as microbial growth reduction; type: functional
Mycobacterium kansasii = assay: Antimycobacterial activity against Mycobacterium kansasii assessed as microbial growth reduction; type: functional
Cryptococcus neoformans [21] = assay: Antifungal activity against Cryptococcus neoformans assessed as fungal growth inhibition; type: functional
Fusarium oxysporum = assay: Antifungal activity against Fusarium oxysporum assessed as inhibition of fungal growth; type: functional

Nc1cccc2c1ncn2[C@@H]1O[C@H](CSCCC(=O)O)[C@@H](O)[C@H]1O
MIC (Candida albicans [1]): 0.19 µM (≈ 0.0671 µg/mL)
MIC (Aspergillus fumigatus [2]): 0.19 µM (≈ 0.0671 µg/mL)
MIC (Cryptococcus neoformans [3]): 0.19 µM (≈ 0.0671 µg/mL)

O=C(NC[C@@H]1O[C@H](n2ccc(=O)[nH]c2=O)[C@@H](O)[C@H]1O)OCCOC(=O)NC[C@H]1O[C@@H](n2ccc(=O)[nH]c2=O)[C@H](O)[C@@H]1O
IC50 [4]: 1100 nM
inhibition (Candida albicans [5]): 32%

CSCC[C@H](NC(=O)N[C@@H](Cc1cccc(O)c1)C(=O)O)C(=O)NC(CN(C)C(=O)C1Cc2ccc(O)cc2C(C)N1)C(=O)N/C=C1/C[C@@H](O)[C@H](N2CCC(=O)NC2=O)O1 (some centres not stated)
MIC (Pseudomonas aeruginosa [6]): 6.25 µg/mL

O=C(OC[C@H]1O[C@@H](n2ccc(=O)[nH]c2=O)[C@H](O)[C@@H]1O)c1ccccc1O
MIC (Candida albicans [7]): 1000 µg/mL (≈ 2740 µM)
MIC (Aspergillus fumigatus [8]): 1000 µg/mL (≈ 2740 µM)

CCCCCCCCCCCCCCCCC(=O)[C@H](NCCCC(=O)NCCCCNC(=N)N)[C@H](O[C@@H]1O[C@H](CN)[C@@H](O)[C@H]1O)[C@H]1O[C@@H](n2ccc(=O)[nH]c2=O)[C@H](O)[C@@H]1O
MIC (Pseudomonas aeruginosa [9]): 4 µg/mL (≈ 4.68 µM)

C[C@@H]([C@H](N)C(=O)N[C@H](C(=O)O)[C@H]1O[C@@H](n2ccc(=O)[nH]c2=O)[C@H](O)[C@@H]1O)[C@H](O)c1ccc(O)cn1 [NIKKOMYCIN]
MIC (Candida albicans [10]): 8 µg/mL
MIC (Cryptococcus neoformans [11]): 0.03 µg/mL (≈ 0.0606 µM)
MIC (Candida albicans [12]): 10 µg/mL (≈ 20.2 µM)
IC50 [13]: 0.3 µg/mL (≈ 0.606 µM)
IC50 [4]: 800 nM
MIC (Coccidioides immitis): 0.25 µg/mL (≈ 0.505 µM)
MIC [14]: 64 µg/mL

CC(C)C[C@H](N)C(=O)N[C@H](C(=O)O)[C@@H]1C[C@@H](O)[C@@H](O)[C@H](n2ccc(=O)[nH]c2=O)O1
MIC (Cryptococcus neoformans [11]): 0.25 µg/mL (≈ 0.603 µM)
MIC (Aspergillus niger): 0.03 µg/mL
MIC (Coccidioides immitis): 0.25 µg/mL (≈ 0.603 µM)

N[C@@H](Cc1cc2ccccc2c2ccccc12)C(=O)N[C@@H](C(=O)O)[C@H]1O[C@@H](n2ccc(=O)[nH]c2=O)[C@H](O)[C@@H]1O
IC50 [13]: 0.31 µg/mL (≈ 0.58 µM)

CSCC[C@H](NC(=O)N[C@@H](Cc1cccc(O)c1)C(=O)O)C(=O)NC(CN(C)C(=O)C1Cc2ccc(O)cc2C(C)N1)C(=O)N/C=C1/C[C@@H](O)[C@H](n2ccc(=O)[nH]c2=O)O1 (some centres not stated)
MIC (Pseudomonas aeruginosa [6]): 6.25 µg/mL

NC[C@H]1O[C@@H](O[C@@H](Cn2cc(CCCCCCCCOc3ccc(C(=O)c4ccccc4)cc3)nn2)[C@H]2O[C@@H](n3ccc(=O)[nH]c3=O)[C@H](O)[C@@H]2O)[C@H](O)[C@@H]1O
MIC (Staphylococcus aureus [15]): 8 µg/mL (≈ 10.5 µM)
IC50 [16]: 8000 nM

Nc1ccc(C(=O)OC[C@H]2O[C@@H](n3ccc(=O)[nH]c3=O)[C@H](O)[C@@H]2O)c(O)c1
MIC (Candida albicans [7]): 1000 µg/mL (≈ 2640 µM)
MIC (Aspergillus fumigatus [8]): 1000 µg/mL (≈ 2640 µM)

CCCCCCCCCCCCCCC[C@@H](NC(=O)[C@@H](NC(=O)N[C@H](C(=O)O)C(C)C)[C@@H]1CCNC(=N)N1)C(=O)NCCCNC(C(=O)O)[C@H](O[C@@H]1O[C@H](CN)[C@@H](O)[C@H]1O)[C@H]1O[C@@H](n2ccc(=O)[nH]c2=O)[C@H](O)[C@@H]1O (some centres not stated)
IC50 [17]: 740 nM
MIC (Staphylococcus aureus [18]): 2 µg/mL
MIC (Enterococcus faecalis): 0.25 µg/mL
IC50 at 72 h [19]: > 100 µg/mL

CCCCCCCCCCCCCC(=O)O[C@@H]1[C@H](OC)[C@@H]([C@@H](O[C@@H]2OC(C(=O)N[C@H]3CCC[C@@H](C)NC3=O)=C[C@@H](O)[C@H]2O)C(N)=O)O[C@H]1n1ccc(=O)[nH]c1=O
MIC [20]: 0.063 µg/mL (≈ 0.0794 µM)
MIC (Mycobacterium avium): 0.063 µg/mL (≈ 0.0794 µM)
MIC (Mycobacterium kansasii): 0.063 µg/mL (≈ 0.0794 µM)

C[C@@H]([C@H](N)C(=O)N[C@H](C(=O)O)[C@@H]1C[C@@H](O)[C@@H](O)[C@H](n2ccc(=O)[nH]c2=O)O1)[C@H](O)c1ccc(O)cc1
MIC (Cryptococcus neoformans [11]): 0.25 µg/mL (≈ 0.492 µM)
MIC (Aspergillus niger): 0.03 µg/mL
MIC (Candida albicans [7]): 0.03 µg/mL (≈ 0.059 µM)
MIC (Coccidioides immitis): 0.03 µg/mL (≈ 0.059 µM)

CSCC[C@H](NC(=O)N[C@@H](Cc1cccc(O)c1)C(=O)O)C(=O)NC(CN(C)C(=O)C1Cc2ccc(O)cc2CN1)C(=O)N/C=C1/C[C@@H](O)[C@H](N2CCC(=O)NC2=O)O1 (some centres not stated)
MIC (Pseudomonas aeruginosa [6]): 6.25 µg/mL

COc1ccc(OCc2cn(C[C@H]3O[C@@H](n4ccc(=O)[nH]c4=O)[C@@H]4OC(C)(C)O[C@@H]43)nn2)cc1
MIC (Cryptococcus neoformans [21]): 8 µg/mL (≈ 17 µM)
MIC (Candida albicans [7]): 24 µg/mL (≈ 50.9 µM)
MIC (Fusarium oxysporum): 32 µg/mL (≈ 67.9 µM)

O=C(NC[C@@H]1O[C@H](n2ccc(=O)[nH]c2=O)[C@@H](O)[C@H]1O)OCCOCCOC(=O)NC[C@H]1O[C@@H](n2ccc(=O)[nH]c2=O)[C@H](O)[C@@H]1O
IC50 [4]: 11800 nM
inhibition (Candida albicans [5]): 45%
